Values belong to the molecule of their own block, whether it stands above or below them.
Experiments:
[1] = test system: Euphorbia helioscopia; assay: Activity assay of compositions, post-emergence spray of stems and leaves; assay type: in vivo; conditions: 21 days
From the text: (§1) The required active ingredient B was purchased from a reagent company or a technical material manufacturer or synthesized by a conventional method. The active ingredient A was Compound 74 in Table 1. The technical materials were all dissolved with acetone solvents and diluted with aqueous solution of 0.1% Tween® 80 emulsifier, which should be used immediately after dilution.
(§2) Weeds were cultivated by a pot culture method. […] Weed seeds with plump and uniform grains were selected, soaked in lukewarm water at 25° C. for 6 hours, and accelerated to germinate in a 28° C. biochemical incubator (in darkness). The weed seeds that had just germinated were evenly placed on the surface of the soil and then covered with 0.5-1 cm soil according to the sizes of seeds.
The weeds were cultured in a controllable sunlight greenhouse at 20-30° C., in natural light, and with relative humidity of 57%-72%. The soil was loam with an organic matter content of 1.63%, a pH value of 7.1, alkali-hydrolyzable nitrogen of 84.3 mg/kg, rapidly available phosphorus of 38.5 mg/kg, and rapidly available potassium of 82.1 mg/kg.
(§3) Each treatment was repeated 4 times for 3 pots. Each pot was seeded with 20 weed seeds.
(§4) The drugs were applied once in total in the experiment. When at the stage of 1.5-2 leaves, the weeds were thinned out to maintain 10 strains per pot. Thirty strains were kept in each treatment and then continued to be cultured until the Erigeron canadensis reached 10 cm tall and other weeds in their 3-4 leaf stage for further treatment.
(§5) The well-cultured test materials were evenly placed on a 0.5 m^2 platform and foliage-sprayed by the 3WP-2000-type walking spray tower at a dosage of […] and a spray pressure of 0.3 MPa. After all the drug solution was sprayed, the air valve was closed. And 30 seconds later, the door of the spray tower was opened, and the nutritional bowl was taken out. Next, the air valve was opened, and the spray tube was cleaned by spraying 50 ml of water. The test materials were transferred to and routinely cultured in a greenhouse after the treatment.
(§6) A method for investigating absolute numbers was employed. The whole seedlings of the survival weeds were cut along the soil surface with a blade, and the fresh weight of the weeds was weighed by an analytical balance. For dead weeds, the fresh weight thereof was considered zero.
(§7) The investigation was performed 21 days after the treatment for once in total.
(§8) The theoretical fresh weight inhibition rate of a mixed combination of each treatment was calculated by the Gowing method (E0=X+Y−X*Y/100). Then compared with the measured inhibition rate (E), the type of the combined action of the combination of the two on weeds was evaluated, which was a synergistic effect when E−E0>10; an antagonistic effect when E−E0<−10%; an additional effect when −10≤E−E0≤100. An optimal ratio was determined according to factors such as the actual control effects, characteristics of herbicides, balance of the formulation, etc. In the formula, X represents the fresh weight inhibition rate of the active ingredient A in a dosage of P; Y represents the fresh weight inhibition rate of the active ingredient B in a dosage of Q. The statistical results are shown in Table 5 below.

[2] = test system: Veronica; assay: as above; assay type: in vivo; conditions: 21 days
Protocol: as §1, with “The active ingredient A was Compound 74 in Table 1.” left out
as §2, §3, §4, §5, §6, §7
as §8, with “Then compared with the measured inhibition rate (E), the type of the combined action of the combination of the two on weeds was evaluated, which was a synergistic effect when E−E0>10; an antagonistic effect when E−E0<−10%; an additional effect when −10≤E−E0≤100.” left out

[3] = test system: Veronica; assay: Post-emergence test on weeds; assay type: in vivo; set-up: key: 0 = no effect, 9 = completely dead (levels by growth control rate); conditions: 30 g a.i./ha, 3 weeks after application
From the text: (§9) The criteria for activity levels of plant damage (i.e., growth control rate) are as follows: • Level 9: completely dead; • Level 8: growth control rate is greater than or equal to 90% and less than 100%; • Level 7: growth control rate is greater than or equal to 80% and less than 90%; • Level 6: growth control rate is greater than or equal to 70% and less than 80%; • Level 5: growth control rate is greater than or equal to 50% and less than 70%; • Level 4: growth control rate is greater than or equal to 30% and less than 50%; • Level 3: growth control rate is greater than or equal to 20% and less than 30%; • Level 2: growth control rate is greater than or equal to 10% and less than 20%; • Level 1: growth control rate is less than 10%; • Level 0: no effect.
(§10) The above growth control rates are fresh weight control rates.
(§11) Monocotyledonous and dicotyledonous weed seeds (Descurainia sophia, Capsella bursa-pastoris, Abutilon theophrasti, Galium spurium, Stellaria media, Lithospermum arvense, Rorippa indica, Alopecurus aequalis, Alopecurus japonicus, Eleusine indica, Beckmannia syzigachne, Sclerochloa dura, Erigeron canadensis, Phleum paniculatum, Veronica, Bromus japonicus, Aegilops tauschii, Phalaris arundinacea, Amaranthus retroflexus, Chenopodium, Commelina communis, Cichorium endivia, Convolvulus arvensis, Cirsium arvense, Solanum nigrum, Acalypha australis, Digitaria sanguinalis, Echinochloa crusgalli, Setaria viridis, Setaria pumila, Leptochloa chinensis, Monochoria vaginalis, Sagittaria trifolia, Schoenoplectiella juncoides, Cyperus rotundus, Cyperus iria, Cyperus difformis, Fimbristylis, Portulaca oleracea, Xanthium sibiricum, Ipomoea nil, Eschenbachia japonica, etc.) and major crop seeds (wheat, maize, paddy rice, soybean, cotton, oilseed rape, millet, sorghum, potato, sesame, castor plant, Chinese cabbage, radish, etc.) were placed in plastic pots filled with soil and then covered with 0.5-2 cm of soil to allow them to grow in a favorable greenhouse environment. Two weeks after sowing, the test plants were treated at the stage of 2-3 leaves. The test compounds of the present invention were individually dissolved with acetone, then added with Tween® 80, with 1.5 L/ha of methyl oleate emulsifiable concentrate as a synergist, diluted into solution of a certain concentration using a certain amount of water, and sprayed to plants using a spray tower. After drug application, the experimental results on weeds were collected after 3 weeks of cultivation in a greenhouse. The compounds were applied at 120, 60, 30, and 15 g a.i./ha in triplicate, and the results were averaged.

[4] = test system: Bidens tripartita; assay: Control effect evaluation on weeds in paddy fields; assay type: in vivo; conditions: paddy pot, 14th day after treatment, seeds resistant to pyrazosulfuron-ethyl
From the text: as §9, §10
(§12) After paddy field soil was loaded into a 1/1,000,000 ha pot, the seeds of Monochoria vaginalis, Pontederia korsakowii and Bidens tripartita were sowed and gently covered with soil, then left to stand in a greenhouse with water storage of 0.5-1 cm deep. The tuber of Sagittaria trifolia was planted on the next day or 2 days later. The water storage was kept at a depth of 3-4 cm thereafter. When the Monochoria vaginalis, Pontederia korsakowii and Bidens tripartita reached their 0.5-leaf stages and the Sagittaria trifolia reached the primary leaf stage, WP or SC aqueous dilutions of the compounds of the present invention formulated according to customary formulation methods were homogeneously dripped for treatment to the specified effective amount using pipettes.
(§13) The effects were evaluated according to the above-mentioned criteria for activity levels.

[5] = test system: Monochoria vaginalis; assay: Control effect evaluation on weeds in paddy fields; assay type: in vivo; conditions: paddy pot, 14th day after treatment, seeds resistant to pyrazosulfuron-ethyl
From the text: as §9, §10, §12, §13

[6] = test system: Pontederia korsakowii; assay: Control effect evaluation on weeds in paddy fields; assay type: in vivo; conditions: paddy pot, 14th day after treatment, seeds resistant to pyrazosulfuron-ethyl
From the text: as §9, §10, §12, §13

[7] = test system: paddy rice (japonica rice); conditions: in vivo
From the text: as §9, §10
In addition, after being loaded into the 1/1,000,000 ha pot, the paddy field soil was leveled to keep the water storage at a depth of 3-4 cm. The paddy rice (japonica rice) at 3-leaf stage was transplanted at a transplanting depth of 3 cm on the next day. The compounds of the present invention were treated in the same manner as above on the 5th day after the transplantation.
as §13

[8] = test system: Paddy rice; assay: Post-emergence test, crop safety; conditions: in vivo, 3 weeks
From the text: as §9, §10, §11

[9] = test system: Wheat; assay: Post-emergence test, crop safety; conditions: in vivo, 3 weeks
From the text: as §9, §10, §11

SMILES: CCC[S@@+]([O-])c1c(C(F)(F)F)ccc(C(=O)Nc2nnc(C)o2)c1F
Control effect of B applied alone in a corresponding dose (%) ([1]; B 15 g a.i./ha): 34.3%
Control effect of B applied alone in a corresponding dose (%) ([1]; B 30 g a.i./ha): 55.4%

SMILES: CC1(C)CON(Cc2ccc(Cl)cc2Br)C1=O
Control effect of B applied alone in a corresponding dose (%) ([1]; B 60 g a.i./ha): 25.7%
Control effect of B applied alone in a corresponding dose (%) ([1]; B 120 g a.i./ha): 44.6%

SMILES: Nc1cc(Cl)nc(C(=O)O)c1Cl [Aminopyralid, aminopyralid]
Control effect of B applied alone in a corresponding dose (%) ([2]; B 30 g a.i./ha): 18.0%
Control effect of B applied alone in a corresponding dose (%) ([2]; B 60 g a.i./ha): 39.7%

SMILES: CCOC(=O)Cn1c(=O)sc2cccc(Cl)c21 [Benazolinethyl, benazolin-ethyl]
Control effect of B applied alone in a corresponding dose (%) ([2]; B 75 g a.i./ha): 24.0%
Control effect of B applied alone in a corresponding dose (%) ([2]; B 150 g a.i./ha): 35.2%

SMILES: Cc1nn(C)cc1C(=O)Oc1c(C(=O)c2ccc(C(F)(F)F)cc2S(C)(=O)=O)c(C)nn1C [Bipyrazone, bipyrazone]
Control effect of B applied alone in a corresponding dose (%) ([1]; B 7.5 g a.i./ha): 37.1%
Control effect of B applied alone in a corresponding dose (%) ([1]; B 15 g a.i./ha): 55.8%

SMILES: O=C(O)c1nc(Cl)ccc1Cl [Clopyralid, clopyralid]
Control effect of B applied alone in a corresponding dose (%) ([2]; B 45 g a.i./ha): 12.4%
Control effect of B applied alone in a corresponding dose (%) ([2]; B 90 g a.i./ha): 33.3%

activity level, Paddy rice [7]: 0
SMILES: COC(=O)c1nc(-c2ccc(C(F)(F)F)c(OC)c2Cl)nc(N)c1OC [Compound 2]
activity level of plant damage (growth control rate), Veronica [3]: 9
activity level, Bidens tripartita ([4]; 75 g a.i./ha): 9
activity level, Monochoria vaginalis ([5]; 75 g a.i./ha): 9
activity level, Pontederia korsakowii ([6]; 75 g a.i./ha): 9

SMILES: COc1c(N)nc(-c2ccc(Br)c(OC)c2F)nc1C(=O)SC [Compound 221]
activity level of plant damage (growth control rate), Veronica [3]: 9
activity level of plant damage (growth control rate), Paddy rice [8]: 0
activity level of plant damage (growth control rate), Wheat [9]: 0

SMILES: CCSC(=O)c1nc(-c2ccc(Br)c(OC)c2F)nc(N)c1OC [Compound 222]
activity level of plant damage (growth control rate), Veronica [3]: 9

SMILES: COC(=O)c1nc(-c2ccc(C(F)(F)F)c(OC(F)F)c2F)nc(N)c1OC [Compound 247]
activity level of plant damage (growth control rate), Veronica [3]: 9

SMILES: Cn1[nH]c(C2CC2)c(C(=O)c2ccc(C(F)(F)F)c(N3CCCCC3=O)c2Cl)c1=O [Cypyrafluone, cypyrafluone]
Control effect of B applied alone in a corresponding dose (%) ([1]; B 15 g a.i./ha): 34.7%
Control effect of B applied alone in a corresponding dose (%) ([1]; B 30 g a.i./ha): 55.2%

SMILES: CCn1ncc(C(=O)c2ccc(S(C)(=O)=O)c(COCC(F)(F)F)c2Cl)c1OC(=O)c1cn(C)nc1C [Fenpyrazone, fenpyrazone]
Control effect of B applied alone in a corresponding dose (%) ([1]; B 15 g a.i./ha): 34.3%
Control effect of B applied alone in a corresponding dose (%) ([1]; B 30 g a.i./ha): 60.0%

SMILES: COc1ncc(F)c2nc(S(=O)(=O)Nc3c(F)cccc3F)nn12 [Florasulam, florasulam]
Control effect of B applied alone in a corresponding dose (%) ([2]; B 3 g a.i./ha): 15.7%
Control effect of B applied alone in a corresponding dose (%) ([2]; B 6 g a.i./ha): 28.1%

SMILES: COc1c(Cl)ccc(-c2nc(C(=O)OCc3ccccc3)c(Cl)c(N)c2F)c1F [Florpyrauxifenbenzyl, florpyrauxifen-benzyl]
Control effect of B applied alone in a corresponding dose (%) ([2]; B 3 g a.i./ha): 20.1%
Control effect of B applied alone in a corresponding dose (%) ([2]; B 6 g a.i./ha): 45.8%

SMILES: CCCCCCC(C)OC(=O)COc1nc(F)c(Cl)c(N)c1Cl (stereo not shown) [Fluroxypyrmeptyl, fluroxypyr-meptyl]
Control effect of B applied alone in a corresponding dose (%) ([2]; B 60 g a.i./ha): 20.3%
Control effect of B applied alone in a corresponding dose (%) ([2]; B 120 g a.i./ha): 40.6%

SMILES: COC(=O)c1nc(-c2ccc(Cl)c(OC)c2F)cc(N)c1Cl [Halauxifenmethyl, halauxifen-methyl]
Control effect of B applied alone in a corresponding dose (%) ([2]; B 1.5 g a.i./ha): 22.8%
Control effect of B applied alone in a corresponding dose (%) ([2]; B 3 g a.i./ha): 43.1%

SMILES: Cc1cc(Cl)ccc1OCC(=O)OCCCCCC(C)C [MCPA-isooctyl]
Control effect of B applied alone in a corresponding dose (%) ([2]; B 150 g a.i./ha): 23.5%
Control effect of B applied alone in a corresponding dose (%) ([2]; B 300 g a.i./ha): 40.8%

SMILES: Nc1c(Cl)c(Cl)nc(C(=O)O)c1Cl [Picloram, picloram]
Control effect of B applied alone in a corresponding dose (%) ([2]; B 15 g a.i./ha): 15.7%
Control effect of B applied alone in a corresponding dose (%) ([2]; B 30 g a.i./ha): 30.8%

SMILES: Cc1cc(C)n(Cc2c(S(C)(=O)=O)ccc(C(=O)c3c(C)nn(C)c3OC(=O)c3cn(C)nc3C)c2Cl)n1 [Tripyrasulfone, tripyrasulfone]
Control effect of B applied alone in a corresponding dose (%) ([1]; B 15 g a.i./ha): 20.0%
Control effect of B applied alone in a corresponding dose (%) ([1]; B 30 g a.i./ha): 36.9%

SMILES: CCOC(=O)c1cnn(C)c1S(=O)(=O)NC(=O)Nc1nc(OC)cc(OC)n1 [pyrazosulfuron-ethyl, reference compound]
activity level, Bidens tripartita ([4]; 30 g a.i./ha): 4 (Level 4: growth control rate is greater than or equal to 30% and less than 50%)
activity level, Monochoria vaginalis ([5]; 30 g a.i./ha): 1 (Level 1: growth control rate is less than 10%)
activity level, Pontederia korsakowii ([6]; 30 g a.i./ha): 2 (Level 2: growth control rate is greater than or equal to 10% and less than 20%)

Reference: patent US20260198497A1, “A BENZENE RING-SUBSTITUTED PYRIMIDINECARBOXYLIC ACID COMPOUND, PREPARATION METHOD THEREFOR, HERBICIDAL COMPOSITION AND APPLICATION THEREOF” (QINGDAO KINGAGROOT CHEMICAL COMPOUND CO., LTD., priority 2023, published 2026)
